Publication PMC10648875 (Antimicrobial Agents and Chemotherapy, 2023)
Like-named read-outs stand apart in the source and are kept apart here.

Columns and labels:
[1] = molecular target: CTX-M-14 (Escherichia coli, UniProt Q9L5C7); test: Ki app of β-lactamase inhibition, purified enzyme; assay type: biochemical; conditions: 10-minute preincubation; nitrocefin substrate
Experimental: (§1) The majority of purified β-lactamase enzymes used in the study were either expressed and purified internally ([35]) or obtained from Emerald Biostructures (Bainbridge Island, WA, USA). L1 enzyme was purified as described in reference ([36]).
(§2) Enzymes were mixed with BLIs at concentrations varying from 160 to 0.0027 µM in 50-mM Na-phosphate pH7.0, 0.1-mg/mL bovide serum albumin (BSA) (buffer A; 20-µM ZnCl2 was also added for all metalloenzymes) and incubated for 10 minutes at 37°C. Nitrocefin (50 µM) (10 µM for SHV-12) or 100 µM of imipenem (prewarmed at 37°C for 10 minutes) was added, and substrate cleavage profiles were recorded at 37°C at 490 nm every 10 seconds for 10 minutes or at 294 nm every 30 seconds for 1 hour for nitrocefin and imipenem, respectively. […] Ki app values (Ki for metalloenzymes) were calculated by the method of Waley ([37]).

[2] = molecular target: CTX-M-15 (Escherichia coli, UniProt Q9EXV5); test: Ki app of β-lactamase inhibition, purified enzyme; assay type: biochemical; conditions: 10-minute preincubation; nitrocefin substrate
Chain of CTX-M-15 (Q9EXV5 entry or part of it): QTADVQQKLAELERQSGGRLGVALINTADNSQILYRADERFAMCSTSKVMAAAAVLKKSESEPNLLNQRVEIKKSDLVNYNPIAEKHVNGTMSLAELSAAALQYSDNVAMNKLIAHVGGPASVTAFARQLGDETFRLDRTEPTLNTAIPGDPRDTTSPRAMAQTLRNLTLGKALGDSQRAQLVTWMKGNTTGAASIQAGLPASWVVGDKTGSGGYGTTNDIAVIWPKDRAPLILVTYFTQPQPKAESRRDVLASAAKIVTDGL
Experimental: as §1, §2

[3] = molecular target: P99 (Enterobacter cloacae, UniProt P05364); test: Ki app of β-lactamase inhibition, purified enzyme; assay type: biochemical
Chain of P99 (P05364 21-381): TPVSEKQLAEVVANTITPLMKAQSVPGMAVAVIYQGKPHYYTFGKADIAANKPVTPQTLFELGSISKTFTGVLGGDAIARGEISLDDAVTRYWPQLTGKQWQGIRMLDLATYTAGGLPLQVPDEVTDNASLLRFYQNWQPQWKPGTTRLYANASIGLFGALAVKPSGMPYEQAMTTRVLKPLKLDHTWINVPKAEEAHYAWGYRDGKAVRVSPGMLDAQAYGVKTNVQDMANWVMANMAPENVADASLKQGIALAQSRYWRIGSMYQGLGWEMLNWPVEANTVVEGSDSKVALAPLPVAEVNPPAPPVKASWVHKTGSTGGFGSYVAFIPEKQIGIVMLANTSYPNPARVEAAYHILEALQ
Experimental: as §1, §2

[4] = molecular target: SHV-12 (Klebsiella pneumoniae, UniProt P0AD64, E235K/G234S/L31Q); test: Ki app of β-lactamase inhibition, purified enzyme; assay type: biochemical
Chain of SHV-12 (P0AD64 22-286 L31Q/G234S/E235K): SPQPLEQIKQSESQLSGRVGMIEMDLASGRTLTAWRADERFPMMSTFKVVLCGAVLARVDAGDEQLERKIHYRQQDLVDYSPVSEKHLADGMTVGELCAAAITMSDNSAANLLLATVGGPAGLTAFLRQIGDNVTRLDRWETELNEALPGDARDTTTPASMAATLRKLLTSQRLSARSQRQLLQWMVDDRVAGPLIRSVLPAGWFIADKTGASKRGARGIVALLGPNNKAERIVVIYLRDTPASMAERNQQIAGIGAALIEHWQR
Experimental: as §1, §2

[5] = molecular target: IMP-1 (Serratia marcescens, UniProt P52699); test: Ki of metallo-β-lactamase inhibition, purified enzyme; assay type: biochemical
Chain of IMP-1 (P52699 19-246 limits assumed): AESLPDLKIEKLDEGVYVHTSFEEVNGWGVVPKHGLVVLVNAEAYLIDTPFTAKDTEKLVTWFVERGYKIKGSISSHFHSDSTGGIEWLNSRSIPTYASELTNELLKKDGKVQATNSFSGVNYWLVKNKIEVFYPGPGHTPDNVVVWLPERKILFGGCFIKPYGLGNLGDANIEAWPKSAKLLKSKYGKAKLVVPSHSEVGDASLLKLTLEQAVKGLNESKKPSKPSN
Experimental: as §1, §2

[6] = molecular target: VIM-1 (Pseudomonas aeruginosa, UniProt A0A0F7KYQ8); test: as above; assay type: biochemical; conditions: 10-minute preincubation; nitrocefin substrate
Experimental: as §1, §2

[7] = molecular target: NDM-1 (Klebsiella pneumoniae, UniProt C7C422); test: biochemical
Chain of NDM-1 (C7C422 29-270 limits assumed): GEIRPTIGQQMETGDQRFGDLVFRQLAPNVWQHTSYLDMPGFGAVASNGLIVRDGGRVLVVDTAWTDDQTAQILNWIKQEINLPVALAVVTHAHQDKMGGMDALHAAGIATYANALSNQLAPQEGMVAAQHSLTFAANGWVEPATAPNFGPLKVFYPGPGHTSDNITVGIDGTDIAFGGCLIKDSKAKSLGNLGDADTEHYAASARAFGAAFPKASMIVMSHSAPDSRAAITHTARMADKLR
Experimental: as §1, §2

[8] = tested on: Escherichia coli NCTC 13353 (ECM7514), CTX-M-15; test: MIC, reference strain; assay type: cell-based; conditions: Escherichia coli, NCTC13353; CTX-M-15; BLI at the fixed concentration in brackets; read-out: MIC
Experimental: (§3) Other BL/BLI combinations were tested at their recommended BLI concentrations. MIC values for the partner antibiotics and BLIs alone were also determined (Table 2; Table S1). All investigational and marketed BLIs enhanced the potency of antibiotics according to their spectrum of inhibition. MIC values against CLSI-approved QC strains were within acceptable ranges for drugs and combinations tested (Table 3).
(§4) Isolates were tested for antimicrobial susceptibility using the broth microdilution methodology per CLSI M07 (2018) guidelines ([40]). JMI Laboratories produced frozen-form 96-well panels with cation-adjusted Mueller-Hinton broth as the testing medium. Current CLSI quality assurance practices were followed when performing the susceptibility tests. MIC values were validated by concurrently testing the following CLSI-recommended ([27]) QC reference strains: E. coli NCTC 13353 (CTX-M-15), Klebsiella pneumoniae ATCC BAA-2814 (KPC-3), Klebsiella pneumoniae ATCC BAA-1705 (KPC-2), and K. pneumoniae ATCC 700603 (SHV-18). The inoculum density during susceptibility testing was monitored by bacterial colony counts. Where applicable, QC ranges for tested reference strains were those approved or published by the CLSI ([27]). Meropenem was purchased from Carbosynth; ceftolozane was synthesized at Acme Bioscience, Palo Alto, CA, USA; all other antibiotics were from Sigma Aldrich. Xeruborbactam was synthesized at Qpex Biopharma, San Diego, CA, USA. Avibactam was purchased from eNovation, Chemicals LLC, Bridgewater, NJ, USA. Vaborbactam was synthesized at The Medicines Company, San Diego, CA. Relebactam, taniborbactam, and relebactam were synthesized at Acme Bioscience.

[9] = tested on: E. coli CDC 0069 (EC1106), NDM-1; test: MIC, reference strain; assay type: cell-based; conditions: Escherichia coli, BLI at the fixed concentration in brackets, read-out: MIC
Experimental: as §3
as §4, with “([27]).” for “([27]). Meropenem was purchased from Carbosynth; ceftolozane was synthesized at Acme Bioscience, Palo Alto, CA, USA; all other antibiotics were from Sigma Aldrich. Xeruborbactam was synthesized at Qpex Biopharma, San Diego, CA, USA. Avibactam was purchased from eNovation, Chemicals LLC, Bridgewater, NJ, USA. Vaborbactam was synthesized at The Medicines Company, San Diego, CA. Relebactam, taniborbactam, and relebactam were synthesized at Acme Bioscience.”

[10] = tested on: K. pneumoniae ATCC BAA-1705 (KPM1123), KPC-2; test: MIC, reference strain; assay type: cell-based; conditions: Klebsiella pneumoniae, ATCCBAA1705; KPC-2; BLI at the fixed concentration in brackets; read-out: MIC
Experimental: as §3
as §4, with “([27]).” for “([27]). Meropenem was purchased from Carbosynth; ceftolozane was synthesized at Acme Bioscience, Palo Alto, CA, USA; all other antibiotics were from Sigma Aldrich. Xeruborbactam was synthesized at Qpex Biopharma, San Diego, CA, USA. Avibactam was purchased from eNovation, Chemicals LLC, Bridgewater, NJ, USA. Vaborbactam was synthesized at The Medicines Company, San Diego, CA. Relebactam, taniborbactam, and relebactam were synthesized at Acme Bioscience.”

[11] = tested on: K. pneumoniae ATCC BAA-2814 (KP1074), KPC-3; test: MIC, reference strain; assay type: cell-based; conditions: Klebsiella pneumoniae, ATCCBAA2814; KPC-3; BLI at the fixed concentration in brackets; read-out: MIC
Experimental: as §3
as §4, with “([27]).” for “([27]). Meropenem was purchased from Carbosynth; ceftolozane was synthesized at Acme Bioscience, Palo Alto, CA, USA; all other antibiotics were from Sigma Aldrich. Xeruborbactam was synthesized at Qpex Biopharma, San Diego, CA, USA. Avibactam was purchased from eNovation, Chemicals LLC, Bridgewater, NJ, USA. Vaborbactam was synthesized at The Medicines Company, San Diego, CA. Relebactam, taniborbactam, and relebactam were synthesized at Acme Bioscience.”

[12] = tested on: K. pneumoniae CDC 0135 (KP1291), VIM-1; test: MIC, reference strain; assay type: cell-based; conditions: Klebsiella pneumoniae, BLI at the fixed concentration in brackets, read-out: MIC
Experimental: as §3
as §4, with “([27]).” for “([27]). Meropenem was purchased from Carbosynth; ceftolozane was synthesized at Acme Bioscience, Palo Alto, CA, USA; all other antibiotics were from Sigma Aldrich. Xeruborbactam was synthesized at Qpex Biopharma, San Diego, CA, USA. Avibactam was purchased from eNovation, Chemicals LLC, Bridgewater, NJ, USA. Vaborbactam was synthesized at The Medicines Company, San Diego, CA. Relebactam, taniborbactam, and relebactam were synthesized at Acme Bioscience.”

[13] = tested on: Klebsiella pneumoniae ATCC 700603 (KPM2881), SHV-18; test: MIC, reference strain; assay type: cell-based; conditions: Klebsiella pneumoniae, ATCC700603; SHV-18; BLI at the fixed concentration in brackets; read-out: MIC
Experimental: as §3
as §4, with “([27]).” for “([27]). Meropenem was purchased from Carbosynth; ceftolozane was synthesized at Acme Bioscience, Palo Alto, CA, USA; all other antibiotics were from Sigma Aldrich. Xeruborbactam was synthesized at Qpex Biopharma, San Diego, CA, USA. Avibactam was purchased from eNovation, Chemicals LLC, Bridgewater, NJ, USA. Vaborbactam was synthesized at The Medicines Company, San Diego, CA. Relebactam, taniborbactam, and relebactam were synthesized at Acme Bioscience.”

[14] = tested on: P. aeruginosa BAA-3197 (PA5257), KPC-2; test: MIC, reference strain; assay type: cell-based; conditions: Pseudomonas aeruginosa, BAA3197; KPC-2; BLI at the fixed concentration in brackets; read-out: MIC
[15] = tested on: ESBL-producing Enterobacterales; test: organism not typed; assay type: cell-based; conditions: ESBL (N = 521); xeruborbactam and vaborbactam fixed 8 mg/L, all other BLIs 4 mg/L
[16] = tested on: carbapenem-resistant Enterobacterales (subset of 507 isolates); test: organism not typed; assay type: cell-based; conditions: xeruborbactam and vaborbactam fixed 8 mg/L, all other BLIs 4 mg/L
[17] = tested on: ESBL-producing and carbapenem-resistant Enterobacterales (All, N = 1028); test: organism not typed; assay type: cell-based; conditions: All (N = 1028); xeruborbactam and vaborbactam fixed 8 mg/L, all other BLIs 4 mg/L
[18] = molecular target: KPC-2 (Klebsiella pneumoniae, UniProt Q9F663); test: Ki app of β-lactamase inhibition, purified enzyme; assay type: biochemical; conditions: 10-minute preincubation; nitrocefin substrate
Chain of KPC-2 (Q9F663 25-293 limits assumed): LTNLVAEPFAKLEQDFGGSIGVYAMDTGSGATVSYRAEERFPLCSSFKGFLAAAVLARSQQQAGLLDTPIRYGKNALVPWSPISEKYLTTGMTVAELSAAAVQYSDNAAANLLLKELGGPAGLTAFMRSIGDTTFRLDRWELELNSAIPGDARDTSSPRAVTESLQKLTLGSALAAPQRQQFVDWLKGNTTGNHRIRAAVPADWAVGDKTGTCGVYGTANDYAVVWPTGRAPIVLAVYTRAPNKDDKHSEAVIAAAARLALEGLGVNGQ
Experimental: as §1, §2

[19] = molecular target: OXA-23 (Acinetobacter baumannii, UniProt Q9L4P2); test: Ki app of β-lactamase inhibition, purified enzyme; assay type: biochemical; conditions: 10-minute preincubation; nitrocefin substrate
Chain of OXA-23 (Q9L4P2 18-273): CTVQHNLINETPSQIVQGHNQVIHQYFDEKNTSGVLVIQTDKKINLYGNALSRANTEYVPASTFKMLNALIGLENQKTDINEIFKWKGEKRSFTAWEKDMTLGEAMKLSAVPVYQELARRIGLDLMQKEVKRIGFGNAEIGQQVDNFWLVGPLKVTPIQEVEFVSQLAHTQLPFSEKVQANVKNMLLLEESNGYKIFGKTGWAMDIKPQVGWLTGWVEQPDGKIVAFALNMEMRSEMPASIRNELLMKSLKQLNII
Experimental: as §1, §2

[20] = molecular target: OXA-48 (Klebsiella pneumoniae, UniProt Q6XEC0); test: Ki app of β-lactamase inhibition, purified enzyme; assay type: biochemical, Enterobacterales; conditions: 10-minute preincubation; nitrocefin substrate
Chain of OXA-48 (Q6XEC0 23-265 limits assumed): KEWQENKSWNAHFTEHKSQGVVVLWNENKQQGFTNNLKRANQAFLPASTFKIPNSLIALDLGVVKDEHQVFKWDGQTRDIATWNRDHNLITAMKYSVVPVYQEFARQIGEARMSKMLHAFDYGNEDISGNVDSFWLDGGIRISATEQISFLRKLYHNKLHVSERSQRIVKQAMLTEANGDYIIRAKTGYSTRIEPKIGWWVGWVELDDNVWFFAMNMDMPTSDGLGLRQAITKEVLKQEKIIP
Experimental: as §1, §2

Chain of CTX-M-14 (Q9L5C7 entry or part of it): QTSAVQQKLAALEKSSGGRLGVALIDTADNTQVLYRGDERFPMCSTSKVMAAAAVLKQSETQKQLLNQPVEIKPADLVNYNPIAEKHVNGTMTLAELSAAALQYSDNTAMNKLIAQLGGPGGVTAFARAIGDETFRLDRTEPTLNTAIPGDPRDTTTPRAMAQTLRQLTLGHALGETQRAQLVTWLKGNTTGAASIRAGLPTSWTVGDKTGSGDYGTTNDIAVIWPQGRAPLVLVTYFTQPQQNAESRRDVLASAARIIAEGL

| Compound | Ki [1] | Ki [2] | Ki [5] | Ki [6] | Ki [7] | MIC [8] | MIC [9] | MIC [10] | MIC [11] | MIC [12] | MIC [13] | MIC [14] | other results |
| --- | --- | --- | --- | --- | --- | --- | --- | --- | --- | --- | --- | --- | --- |
| NC(=O)[C@@H]1CC[C@@H]2CN1C(=O)N2OS(=O)(=O)O [Avibactam, avibactam] | 0.41 ± 0.13 nM | 0.18 ± 0.08 nM | > 160000 nM | > 160000 nM | > 160000 nM | 16 µg/mL | 8 µg/mL | 16 µg/mL | 64 µg/mL | > 64 µg/mL | 32 µg/mL | > 64 µg/mL | Ki ([3]; Ki app): 10 ± 2 nM; Ki [4]: 0.24 ± 0.07 nM |
| CC(C)(O/N=C(\C(=O)N[C@@H]1C(=O)N2C(C(=O)[O-])=C(C[n+]3ccccc3)CS[C@H]12)c1csc(N)n1)C(=O)O [CAZ, ceftazidime] |  |  |  |  |  | 64 µg/mL | > 64 µg/mL | 64 µg/mL | > 64 µg/mL | > 64 µg/mL | 16 µg/mL | > 64 µg/mL |  |
| CO/N=C(\C(=O)N[C@@H]1C(=O)N2C(C(=O)O)=C(CSc3nc(=O)c(O)nn3C)CS[C@H]12)c1csc(N)n1 [CRO] |  |  |  |  |  |  |  |  |  |  |  |  | MIC50 [15]: >32 µg/mL; MIC90 [15]: >32 µg/mL; MIC50 ([16]; CRE (N = 507)): >32 µg/mL; MIC90 ([16]; CRE (N = 507)): >32 µg/mL; MIC50 ([16]; KPC (N = 193)): >32 µg/mL; MIC90 ([16]; KPC (N = 193)): >32 µg/mL; MIC50 ([16]; MBL (N = 168)): >32 µg/mL; MIC90 ([16]; MBL (N = 168)): >32 µg/mL; MIC50 ([16]; Non-CP CRE (N = 50)): >32 µg/mL; MIC90 ([16]; Non-CP CRE (N = 50)): >32 µg/mL; MIC50 ([16]; OXA-48-like (N = 96)): >32 µg/mL; MIC90 ([16]; OXA-48-like (N = 96)): >32 µg/mL; MIC50 [17]: >32 µg/mL; MIC90 [17]: >32 µg/mL |
| CC1=C[C@@H]2CN(C(=O)N2OS(=O)(=O)O)[C@@H]1C(N)=O [Durlobactam, durlobactam] | 0.37 ± 0.16 nM | 0.21 ± 0.12 nM | > 160000 nM | > 160000 nM | > 160000 nM |  |  |  |  |  |  |  | Ki [18]: 1.7 ± 0.4 nM; Ki [19]: 94 ± 32 nM; Ki ([3]; 10-minute preincubation, nitrocefin substrate, read-out: Ki app): 0.17 ± 0.08 nM; Ki [20]: 0.72 ± 0.27 nM |
